Holding throughout (type): biochemical
In assay [1] the target is T1, recombinant alpha-glucosidase I (human full-length glucosidase I, Glu 1) (Homo sapiens, UniProt Q13724).
T1 construct: 6-His (C); made in house; host or cells: HEK-293T cells transduced with BacMam virus (virus raised in Sf9)
T1 sequence (Q13724 1-837): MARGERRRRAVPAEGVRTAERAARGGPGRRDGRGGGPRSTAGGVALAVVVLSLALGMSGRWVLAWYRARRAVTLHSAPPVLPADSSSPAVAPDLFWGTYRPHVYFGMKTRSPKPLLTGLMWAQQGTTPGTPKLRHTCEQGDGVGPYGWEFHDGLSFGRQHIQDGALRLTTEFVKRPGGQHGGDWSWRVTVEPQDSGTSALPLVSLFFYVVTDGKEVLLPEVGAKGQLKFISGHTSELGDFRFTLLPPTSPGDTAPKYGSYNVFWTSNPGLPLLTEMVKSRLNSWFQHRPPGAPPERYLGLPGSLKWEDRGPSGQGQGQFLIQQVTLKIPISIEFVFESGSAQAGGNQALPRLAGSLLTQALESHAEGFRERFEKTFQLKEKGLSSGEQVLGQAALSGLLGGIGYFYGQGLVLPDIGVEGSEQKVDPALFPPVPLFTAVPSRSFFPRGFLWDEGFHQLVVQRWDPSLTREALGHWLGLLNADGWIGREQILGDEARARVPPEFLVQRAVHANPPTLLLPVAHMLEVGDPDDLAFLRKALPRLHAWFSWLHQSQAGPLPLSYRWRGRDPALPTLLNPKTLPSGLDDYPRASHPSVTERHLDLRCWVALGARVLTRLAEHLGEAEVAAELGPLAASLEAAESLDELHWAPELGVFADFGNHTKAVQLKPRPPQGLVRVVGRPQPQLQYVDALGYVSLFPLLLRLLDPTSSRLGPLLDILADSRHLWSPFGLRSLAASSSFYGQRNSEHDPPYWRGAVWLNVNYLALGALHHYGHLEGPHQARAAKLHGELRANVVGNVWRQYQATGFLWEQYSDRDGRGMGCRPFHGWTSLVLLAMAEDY
The assay is described as follows: Alpha-glucosidase I assay (Amplex Red glucose detection, synthetic trisaccharide substrate). Particulars: Glucosidase 1; read-out: Glu 1 IC50. The source says:
Preparation of Human Full-length Glucosidase I: The amino acid sequence for human full-length glucosidase I was obtained from UniProt (Q13724). […] The entry vector was cloned into Kemp Proteins' BacMam Destination vector and transformed into chemically competent DH10Bac E. coli cells to produce recombinant glucosidase I bacmids. Bacmid isolates were obtained following two rounds of blue-white screening and they were transfected into Sf9 cells cultivated in serum-free medium (Thermo Fisher Scientific). Four days post-transfection the culture supernatants containing virus were harvested and filter sterilized. […] A multiplicity of infection (MOI, ratio of virus to cells) of 4 was selected. Soluble glucosidase I was detected by anti-His western blots in the soluble cell extract following extraction with 1% V/V NP40 for 30 minutes at 0° C. Productions and purifications of glucosidase I were carried out at scales ranging from 1-liter to 10-liters. […] In another example production at the 10-liter scale was performed in stirred-tank bioreactors at 27° C. and 80 rpm with dissolved oxygen level at 50% of oxygen in air and pH between 7.0 and 7.2. Cells were transduced at MOI of 4 and the cell pellet was harvested at 48 hours post-transduction using centrifugation.
The pellet from a 10-liter culture was lysed by resuspending the pellet into 1-liter of 50 mM NaH2PO4—H2O+300 mM NaCl+10 mM Imidazole+1 mM PMSF+1% V/V NP40 pH 8. The suspension was incubated on ice for 30 minutes and clarified at 500×g and 4° C. The supernatant was collected and clarified at 20,000×g for 30 minutes at 4° C. and the supernatant was collected and filtered through a 0.2 micron filter. […] The column was washed with 20 column volumes (CV) of 50 mM NaH2PO4-H2O+300 mM NaCl+10 mM Imidazole pH 8 and eluted using a linear gradient of 0-60% 50 mM NaH2PO4-H2O+300 mM NaCl+500 mM Imidazole pH 8 over 90 minutes. at 5 mL per minute. Fractions (25 mL) were collected and analyzed by SDS PAGE and Western Blot (reducing anti-His). Fractions containing purified glucosidase I were pooled and dialyzed into storage buffer (20 mM Tris+300 mM NaCl+50 mM L-arginine+10 mM EDTA+0.01% V/V Tween 80 pH 7.5). The final material was filter sterilized and stored at 4° C. and the working dilution confirmed by a use-test in the indicated assay conditions prior to use.
Alpha-glucosidase I Assay: The assay was performed by incubating recombinant alpha-glucosidase I enzyme with multiple dilutions of test compounds for 60 minutes at 37° C. A synthetic trisaccharide substrate analog was then introduced to the mixture for 90 minutes at 37° C. The reaction was then stopped with 1.5M Tris (pH 8). In the absence of inhibition, the terminal glucose of the substrate was hydrolyzed by the enzyme. The D-glucose product was detected using Amplex Red Glucose/Glucose Oxidase Assay Kit (Invitrogen) following the manufacturer's directions where glucose oxidase reacts with D-glucose to form D-gluconolactone and H2O2 which then reacts with the Amplex Red reagent to generate a red-fluorescent oxidation product (560 nm, excitation; 590 nm, emission). […] Percent inhibition is plotted as a function of concentration for each compound, compared to control reactions. The IC50 was determined using a 4-PL curve fit and serves as a measure of relative inhibitory activity of each test compound (see Table 3).

The target in assay [2] is T2, recombinant alpha-glucosidase II (murine full-length glucosidase II, alpha and beta subunits, Glu 2) (Mus musculus, UniProt Q8BHN3).
T2 construct: made in house; host or cells: HEK-293T cells transduced with BacMam viruses (75% alpha, 25% beta); protein harvested from culture supernatant
T2 sequence (O08795 15-521): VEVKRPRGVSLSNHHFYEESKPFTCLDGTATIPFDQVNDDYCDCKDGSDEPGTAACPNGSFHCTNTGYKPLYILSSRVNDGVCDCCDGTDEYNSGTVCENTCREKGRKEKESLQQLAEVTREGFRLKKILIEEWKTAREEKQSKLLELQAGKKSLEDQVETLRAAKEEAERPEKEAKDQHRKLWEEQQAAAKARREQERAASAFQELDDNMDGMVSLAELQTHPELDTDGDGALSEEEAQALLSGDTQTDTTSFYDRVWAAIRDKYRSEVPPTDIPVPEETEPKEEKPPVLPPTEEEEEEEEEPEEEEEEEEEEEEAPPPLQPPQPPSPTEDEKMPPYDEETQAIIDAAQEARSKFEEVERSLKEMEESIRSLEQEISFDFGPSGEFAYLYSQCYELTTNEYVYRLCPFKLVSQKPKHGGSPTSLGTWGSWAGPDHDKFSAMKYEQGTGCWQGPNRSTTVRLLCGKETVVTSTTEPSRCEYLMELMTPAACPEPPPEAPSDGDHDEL
T2 sequence (Q8BHN3 33-944): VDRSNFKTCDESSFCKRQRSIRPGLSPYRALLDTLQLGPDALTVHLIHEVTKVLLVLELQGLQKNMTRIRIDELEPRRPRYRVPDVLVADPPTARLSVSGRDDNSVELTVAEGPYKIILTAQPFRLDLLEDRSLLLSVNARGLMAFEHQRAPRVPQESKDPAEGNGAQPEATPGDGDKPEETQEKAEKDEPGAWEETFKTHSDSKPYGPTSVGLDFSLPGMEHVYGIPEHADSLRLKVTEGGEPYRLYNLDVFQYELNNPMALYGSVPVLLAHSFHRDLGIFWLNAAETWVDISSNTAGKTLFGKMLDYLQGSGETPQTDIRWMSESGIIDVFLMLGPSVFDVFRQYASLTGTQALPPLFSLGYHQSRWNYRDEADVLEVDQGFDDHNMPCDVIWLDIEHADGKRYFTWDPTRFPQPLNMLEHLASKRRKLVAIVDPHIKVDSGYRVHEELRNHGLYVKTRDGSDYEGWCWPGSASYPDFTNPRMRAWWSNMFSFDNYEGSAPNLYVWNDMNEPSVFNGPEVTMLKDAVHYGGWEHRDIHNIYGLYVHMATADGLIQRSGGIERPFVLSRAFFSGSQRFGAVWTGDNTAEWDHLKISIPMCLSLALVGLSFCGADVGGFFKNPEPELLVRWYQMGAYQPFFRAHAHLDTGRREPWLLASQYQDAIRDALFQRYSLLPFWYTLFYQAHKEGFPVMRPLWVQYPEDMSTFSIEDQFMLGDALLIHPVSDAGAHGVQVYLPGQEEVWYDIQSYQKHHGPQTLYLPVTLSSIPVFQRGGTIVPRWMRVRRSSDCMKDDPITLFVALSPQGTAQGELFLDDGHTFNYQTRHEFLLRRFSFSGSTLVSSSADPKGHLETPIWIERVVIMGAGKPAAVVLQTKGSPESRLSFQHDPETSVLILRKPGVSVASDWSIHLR
As to the kind of experiment: Alpha-glucosidase II assay (4-methylumbelliferyl-alpha-D-pyranoside substrate, fluorescence). Particulars: Glucosidase 2; read-out: Glu2 IC50.

Assay [3] concerns the target recombinant human GAA (acid alpha-glucosidase) (Homo sapiens, UniProt P10253). The assay is described as follows: Acid alpha-glucosidase (GAA) assay (4-methylumbelliferyl-alpha-D-pyranoside substrate, fluorescence). As to the method:
Acid alpha-glucosidase (GAA): To analyze inhibitory effects of a test compound, commercially available recombinant human GAA was incubated with multiple dilutions of test compound for 60 minutes at 37° C. 4-methylumbelliferyl-alpha-D-pyranoside was then introduced to the mixture as the substrate. 1,4-methyllumbelliferone is generated, and after an incubation for 20 minutes at 37° C., the reaction was stopped with the stop solution (0.5M glycine 0.3M NaOH pH 10). 1,4-methyllumbelliferone is detected by fluorescence (excitation at 365 nm, emission at 440 nm). Relative fluorescence compared to untreated enzymatic activity and test compound concentration is plotted as a function of percent inhibition. The IC50 is determined using a 4-PL curve fit as the measure of relative inhibitory activity of each test compound (see Table 3).

Assay [4] concerns the target rat maltase (partially purified alpha-glucosidase from intestinal rat powder). The assay is described as follows: Intestinal alpha-glucosidase assay, maltose substrate (Glucose GO Kit). As to the method:
(§1) Intestinal alpha-glucosidases (rat maltase and sucrase): Intestinal alpha-glucosidases act upon 1,4-alpha-glucoside bonds, breaking down disaccharides to glucose. To perform this assay, partially purified alpha-glucosidase from intestinal rat powder was incubated for 60 minutes at 37° C. with multiple dilutions of test compounds. Maltose or Sucrose respectively was then introduced as substrate to the mixture and incubated for 30 minutes at 37° C. The reaction was stopped by a 5-minute incubation at 90° C. and the resultant glucose production is detected using Sigma's Glucose GO Kit. Percent inhibition was then plotted as a function of concentration for each test compound. The IC50 was determined using a 4-PL curve fit and serves as the measure of relative inhibition of each test compound (see Table 3).

Assay [5] concerns the target rat sucrase (partially purified alpha-glucosidase from intestinal rat powder) (Rattus norvegicus, UniProt P23739). As to the kind of experiment: Intestinal alpha-glucosidase assay, sucrose substrate (Glucose GO Kit). As to the method: as §1

pIC50: −log10 of the molar value.

What is called pIC50 is −log10 of the IC50, conventionally taken in molar units.

Chain of rat sucrase (partially purified alpha-glucosidase from intestinal rat powder) (P23739 whole entry): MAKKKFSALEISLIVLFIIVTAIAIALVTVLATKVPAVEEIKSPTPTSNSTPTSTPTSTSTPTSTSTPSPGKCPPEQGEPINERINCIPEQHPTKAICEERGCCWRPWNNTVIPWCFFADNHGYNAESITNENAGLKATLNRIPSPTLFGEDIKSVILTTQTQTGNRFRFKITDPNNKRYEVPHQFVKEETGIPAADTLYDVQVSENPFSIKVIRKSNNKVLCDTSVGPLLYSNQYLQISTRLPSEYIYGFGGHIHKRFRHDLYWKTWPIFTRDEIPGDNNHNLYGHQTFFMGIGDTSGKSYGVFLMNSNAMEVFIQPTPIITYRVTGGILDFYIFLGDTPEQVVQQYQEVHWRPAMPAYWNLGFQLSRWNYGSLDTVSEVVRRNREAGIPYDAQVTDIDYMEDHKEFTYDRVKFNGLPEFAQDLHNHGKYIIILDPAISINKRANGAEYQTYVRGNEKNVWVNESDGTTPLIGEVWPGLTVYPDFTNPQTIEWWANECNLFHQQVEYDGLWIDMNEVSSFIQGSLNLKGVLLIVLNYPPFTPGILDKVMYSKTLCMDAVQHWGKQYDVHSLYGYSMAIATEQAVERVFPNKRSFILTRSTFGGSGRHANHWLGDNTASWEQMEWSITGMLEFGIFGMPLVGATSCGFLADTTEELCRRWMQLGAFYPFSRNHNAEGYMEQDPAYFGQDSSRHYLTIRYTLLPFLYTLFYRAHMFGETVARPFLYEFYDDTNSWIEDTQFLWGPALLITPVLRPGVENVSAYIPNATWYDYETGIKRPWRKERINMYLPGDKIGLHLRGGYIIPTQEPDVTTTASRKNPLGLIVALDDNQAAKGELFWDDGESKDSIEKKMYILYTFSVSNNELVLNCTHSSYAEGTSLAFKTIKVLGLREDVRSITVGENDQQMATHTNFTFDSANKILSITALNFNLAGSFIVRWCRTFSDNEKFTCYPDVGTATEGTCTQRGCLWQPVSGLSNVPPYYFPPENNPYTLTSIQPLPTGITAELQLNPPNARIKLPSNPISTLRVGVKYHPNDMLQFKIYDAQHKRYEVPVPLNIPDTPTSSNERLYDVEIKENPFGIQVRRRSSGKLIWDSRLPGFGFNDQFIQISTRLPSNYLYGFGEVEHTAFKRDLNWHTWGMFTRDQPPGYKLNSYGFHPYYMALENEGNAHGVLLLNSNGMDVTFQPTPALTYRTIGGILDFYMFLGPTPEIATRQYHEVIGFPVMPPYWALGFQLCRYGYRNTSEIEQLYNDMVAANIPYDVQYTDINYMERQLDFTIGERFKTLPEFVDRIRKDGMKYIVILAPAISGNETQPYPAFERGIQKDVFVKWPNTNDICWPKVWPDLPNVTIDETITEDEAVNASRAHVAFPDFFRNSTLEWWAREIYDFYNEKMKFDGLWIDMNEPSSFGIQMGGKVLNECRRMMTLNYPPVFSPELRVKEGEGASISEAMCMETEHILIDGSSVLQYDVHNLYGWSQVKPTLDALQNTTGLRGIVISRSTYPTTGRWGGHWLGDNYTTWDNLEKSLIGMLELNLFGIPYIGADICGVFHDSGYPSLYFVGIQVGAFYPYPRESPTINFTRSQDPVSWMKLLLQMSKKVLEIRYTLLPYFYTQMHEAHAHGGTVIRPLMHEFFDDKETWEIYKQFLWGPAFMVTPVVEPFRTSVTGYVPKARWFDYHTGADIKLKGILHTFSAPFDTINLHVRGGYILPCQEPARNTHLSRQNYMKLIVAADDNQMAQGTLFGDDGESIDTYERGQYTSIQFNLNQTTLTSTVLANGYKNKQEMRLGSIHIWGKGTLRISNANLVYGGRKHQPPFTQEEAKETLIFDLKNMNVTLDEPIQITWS

Take `[N-]=[N+]=Nc1ccc(NCC2COC(CN3C[C@H](O)[C@@H](O)[C@H](O)[C@H]3CO)CO2)c([N+](=O)[O-])c1` (stereo partly drawn) [Compound 1280, (2R,3R,4R,5S)-1-[(5-{[(4-azido-2-nitrophenyl)amino]methyl}-1,4-dioxan-2-yl)methyl]-2-(hydroxymethyl)piperidine-3,4,5-triol]: the pIC50 was 5.84 in assay [1] and 6.71 in assay [2].
For `OC[C@@H]1[C@@H](O)[C@H](O)[C@@H](O)CN1Cc1ccc(CNc2ccc(-c3cccnn3)cc2)cc1` [Compound 1095, (2R,3R,4R,5S)-2-(hydroxymethyl)-1-{[4-({[4-(pyridazin-3-yl)phenyl]amino}methyl)phenyl]methyl}piperidine-3,4,5-triol], the pIC50 in assay [1] was 7.92; in assay [2], 6.18; in assay [3] it was 6.61; in assay [4], 7.96; in assay [5], 7.89.
For `O=[N+]([O-])c1cc(CN2CCCO2)ccc1NCc1ccc(CN2C[C@H](O)[C@@H](O)[C@H](O)[C@H]2CO)cc1` [Compound 1098] the same measures were 7.64, 7.08, 6.76, 7.89 and 7.40.
